{"source": "patent EP4653008A1", "about": "“TRADITIONAL CHINESE MEDICINE COMPOSITION HAVING EFFICACY IN TREATING COLDS AND USE THEREOF” (Shijiazhuang Yiling Pharmaceutical Co., Ltd., priority 2023, dated 2024)", "key": {"[1]": {"test_system": "lymphocyte (CD4^+ and CD8^+)", "assay": "lymphocytes in blood (flow cytometry), coxsackievirus infection model of young rats", "settings": "120.7mg/kg; for CD4^+/CD8^+: ratio"}, "Coxsackievirus B3 (CVB3) [2]": {"test_system": "Coxsackievirus B3 (CVB3)", "assay": "pathological changes of gastrointestinal tract, coxsackievirus infection model of young rats", "settings": "animals with this lesion grade (n=10), 120.7 mg/kg"}, "Coxsackievirus B3 (CVB3) [3]": {"test_system": "Coxsackievirus B3 (CVB3)", "assay": "viral load in gastrointestinal tissues, coxsackievirus infection model of young rats", "assay_type": "in vivo, young SD rats", "experimental": "Each group consisted of 50 animals.\nHomogenization was carried out using a high-speed homogenizer to prepare a tissue suspension. The suspension was centrifuged at 14000 rpm for 10 min at 4°C and the resulting supernatant was collected. RNA was extracted using the RNA extraction solution, and the extracted RNA was reverse transcribed into c-DNA. The fluorescence intensity of c-DNA obtained by reverse transcription was measured by using absolute quantitative PCR, and the fluorescence intensity of c-DNA was used to reflect the load of coxsackievirus B3 in the tissues of the stomach, small intestine, and large intestine."}, "IL-10": {"test_system": "IL-10", "assay": "IL-10 in tissues (ELISA), coxsackievirus infection model of young rats"}, "IFN-γ": {"test_system": "IFN-γ", "assay": "IFN-γ in tissues (ELISA), coxsackievirus infection model of young rats"}, "IL-1β": {"test_system": "IL-1β", "assay": "IL-1β in tissues (ELISA), coxsackievirus infection model of young rats"}, "TNF-α": {"test_system": "TNF-α", "assay": "TNF-α in tissues (ELISA), coxsackievirus infection model of young rats"}, "ICR mice": {"test_system": "ICR mice", "assay": "writhing in mice caused by acetic acid", "assay_type": "in vivo", "settings": "5.00 mg/kg", "experimental": "Referring to the previous studies in our laboratory and relevant literatures, the dose of indomethacin drug administered to mice was set at 5.00 mg/kg, as shown in Table 23.\nA disposable syringe was used to administer the drug at a dosing volume of 10 ml/kg. Animals in the model group were administered with a corresponding volume of the solvent. The administration was carried out for 5 days.\nAfter receiving new experimental animals, they were numbered, subjected to an adaptive feeding for 5 days and grouped as described above. All animals were fasted for more than 12 h before the last administration, and 1 h after the last administration, 0.7% acetic acid was injected into the abdominal cavity of mice at a dose of 10ml/kg to stimulate the visceral and parietal peritoneum, leading to a deep, widespread, and long-time pain. […] The latency period to the onset of writhing and the number of writhing incidents within 15 min were recorded as quantitative indicators of pain."}, "MDCK": {"test_system": "MDCK", "assay": "in vitro cytotoxicity (CCK-8)", "assay_type": "cell-based, canine", "settings": "Canis lupus familiaris; MDCK cells; 72 h; n=3", "experimental": "• (1) Test Grouping: The appropriate starting concentration of the pharmaceutical composition was selected for test grouping according to the references. All the pharmaceutical compositions were diluted with serum-free DMEM medium. For the cell control group, only serum-free DMEM medium was used. […] For the positive control drug group, oseltamivir acid as a positive drug was set up at concentrations of 1000, 500, 250, 125, 62.5, and 31.25 µM. […] Recombinant human interferon α2b gel as a positive drug was set up at final concentrations of 1000, 333.33, 111.11, […], 33.33, and 11.11 IU/mL. The blank control group contained only serum-free DMEM medium and no cells. Three replicate wells were set up for each concentration in each group. • (2) Cell Plating: Cells were prepared into a suspension single cells (1×10^4 cells/mL), seeded to a 96-well cell culture plate (100 µL/well), and incubated overnight in a 37°C, 5% CO2 incubator. • (3) Addition of Drug and Test: The culture medium was discarded and the cells were washed twice with 1×PBS. […] After cells were incubated in the incubator for 1-4 h, the OD450 nm value was read using a microplate reader. The inhibition rate of cells and the half maximal inhibitory concentration (IC50) of the tested drugs on cells were calculated. […]"}, "H1HeLa": {"test_system": "H1HeLa", "assay": "cells", "assay_type": "cell-based", "settings": "Homo sapiens, H1-HeLa, 72 h, n=3"}, "influenza B virus (IBV)": {"test_system": "influenza B virus (IBV)", "assay": "in vitro antiviral assay (CPE, CCK-8)", "assay_type": "cell-based", "settings": "MDCK host cells, n=4"}, "influenza A virus (H3N2)": {"test_system": "influenza A virus (H3N2)", "assay": "in vitro antiviral assay (CPE, CCK-8)", "assay_type": "cell-based", "settings": "MDCK host cells, n=4"}, "[4]": {"settings": "next day after the last administration"}, "[5]": {"settings": "next day after last administration"}, "[6]": {"settings": "3 days after administration, 120.7 mg/kg"}, "[7]": {"settings": "next day after last administration, 120.7mg/kg"}}, "data": [{"compound": "NC(=O)c1ncn([C@@H]2O[C@H](CO)[C@@H](O)[C@H]2O)n1", "note": "[Ribavirin granule, Ribavirin]", "values": [{"measurement": "% lymphocyte CD4^+", "setting": "[1]; 3 days after administration", "value": "33.31±8.66", "unit": "%"}, {"measurement": "% lymphocyte CD8^+", "setting": "[1]; 3 days after administration", "value": "20.52±5.91", "unit": "%"}, {"measurement": "% lymphocyte CD4^+", "setting": "[1]; [4]", "value": "22.69±4.04", "unit": "%"}, {"measurement": "% lymphocyte CD8^+", "setting": "[1]; [4]", "value": "11.40±2.18", "unit": "%"}, {"measurement": "CD4^+/CD8^+", "setting": "[1]; 3 days after administration", "value": "1.65±0.18"}, {"measurement": "CD4^+/CD8^+", "setting": "[1]; [4]", "value": "2.03±0.37"}, {"measurement": "Cecum and rectum +", "setting": "Coxsackievirus B3 (CVB3) [2]; 3 days after administration", "value": 3}, {"measurement": "Cecum and rectum + +", "setting": "Coxsackievirus B3 (CVB3) [2]; 3 days after administration", "value": 0}, {"measurement": "Cecum and rectum -", "setting": "Coxsackievirus B3 (CVB3) [2]; 3 days after administration", "value": 7}, {"measurement": "Duodenum and jejunum +", "setting": "Coxsackievirus B3 (CVB3) [2]; 3 days after administration", "value": 0}, {"measurement": "Duodenum and jejunum + +", "setting": "Coxsackievirus B3 (CVB3) [2]; 3 days after administration", "value": 0}, {"measurement": "Ileum and colon +", "setting": "Coxsackievirus B3 (CVB3) [2]; 3 days after administration", "value": 2}, {"measurement": "Ileum and colon + +", "setting": "Coxsackievirus B3 (CVB3) [2]; 3 days after administration", "value": 3}, {"measurement": "Ileum and colon -", "setting": "Coxsackievirus B3 (CVB3) [2]; 3 days after administration", "value": 5}, {"measurement": "Stomach +", "setting": "Coxsackievirus B3 (CVB3) [2]; 3 days after administration", "value": 9}, {"measurement": "Stomach + +", "setting": "Coxsackievirus B3 (CVB3) [2]; 3 days after administration", "value": 1}, {"measurement": "Stomach -", "setting": "Coxsackievirus B3 (CVB3) [2]; 3 days after administration", "value": 0}, {"measurement": "Cecum and rectum +", "setting": "Coxsackievirus B3 (CVB3) [2]; [5]", "value": 5}, {"measurement": "Cecum and rectum + +", "setting": "Coxsackievirus B3 (CVB3) [2]; [5]", "value": 2}, {"measurement": "Cecum and rectum -", "setting": "Coxsackievirus B3 (CVB3) [2]; [5]", "value": 3}, {"measurement": "Duodenum and jejunum +", "setting": "Coxsackievirus B3 (CVB3) [2]; [5]", "value": 0}, {"measurement": "Duodenum and jejunum + +", "setting": "Coxsackievirus B3 (CVB3) [2]; [5]", "value": 0}, {"measurement": "Ileum and colon +", "setting": "Coxsackievirus B3 (CVB3) [2]; [5]", "value": 2}, {"measurement": "Ileum and colon + +", "setting": "Coxsackievirus B3 (CVB3) [2]; [5]", "value": 3}, {"measurement": "Ileum and colon -", "setting": "Coxsackievirus B3 (CVB3) [2]; [5]", "value": 5}, {"measurement": "Stomach +", "setting": "Coxsackievirus B3 (CVB3) [2]; [5]", "value": 5}, {"measurement": "Stomach + +", "setting": "Coxsackievirus B3 (CVB3) [2]; [5]", "value": 0}, {"measurement": "Stomach -", "setting": "Coxsackievirus B3 (CVB3) [2]; [5]", "value": 5}, {"measurement": "viral load, Large intestine", "setting": "Coxsackievirus B3 (CVB3) [3]; [6]", "value": "515.92±226.55", "unit": "Copies/mg"}, {"measurement": "viral load, Small intestine", "setting": "Coxsackievirus B3 (CVB3) [3]; [6]", "value": "947.76±811.44", "unit": "Copies/mg"}, {"measurement": "viral load, Stomach", "setting": "Coxsackievirus B3 (CVB3) [3]; [6]", "value": "49.19±11.47", "unit": "Copies/mg"}, {"measurement": "viral load, Large intestine", "setting": "Coxsackievirus B3 (CVB3) [3]; [7]", "value": "16346.45±20084.56", "unit": "Copies/mg"}, {"measurement": "viral load, Small intestine", "setting": "Coxsackievirus B3 (CVB3) [3]; [7]", "value": "308.03±198.76", "unit": "Copies/mg"}, {"measurement": "viral load, Stomach", "setting": "Coxsackievirus B3 (CVB3) [3]; [7]", "value": "104.75±74.10", "unit": "Copies/mg"}, {"measurement": "IL-10 Large intestine", "setting": "IL-10; D4, 120.7mg/kg", "value": "497 ± 28", "unit": "pg/mg"}, {"measurement": "IL-10 Small intestine", "setting": "IL-10; D4, 120.7mg/kg", "value": "473 ± 23", "unit": "pg/mg"}, {"measurement": "IL-10 Stomach", "setting": "IL-10; D4, 120.7mg/kg", "value": "509 ± 37", "unit": "pg/mg"}, {"measurement": "IL-10 Large intestine", "setting": "IL-10; D8, 120.7 mg/kg", "value": "496 ± 50", "unit": "pg/mg"}, {"measurement": "IFN-γ Large intestine", "setting": "IFN-γ; D4, 120.7mg/kg", "value": "18364 ± 1203", "unit": "pg/mg"}, {"measurement": "IFN-γ Small intestine", "setting": "IFN-γ; D4, 120.7mg/kg", "value": "16295 ± 865", "unit": "pg/mg"}, {"measurement": "IFN-γ Stomach", "setting": "IFN-γ; D4, 120.7mg/kg", "value": "18235 ± 816", "unit": "pg/mg"}, {"measurement": "IFN-γ Large intestine", "setting": "IFN-γ; D8, 120.7 mg/kg", "value": "19728 ± 926", "unit": "pg/mg"}, {"measurement": "IFN-γ Small intestine", "setting": "IFN-γ; D8, 120.7 mg/kg", "value": "17443 ± 1296", "unit": "pg/mg"}, {"measurement": "IFN-γ Stomach", "setting": "IFN-γ; D8, 120.7 mg/kg", "value": "16481 ± 1093", "unit": "pg/mg"}, {"measurement": "IL-1β Large intestine", "setting": "IL-1β; D4, 120.7mg/kg", "value": "317 ± 18", "unit": "pg/mg"}, {"measurement": "IL-1β Small intestine", "setting": "IL-1β; D4, 120.7mg/kg", "value": "318 ± 23", "unit": "pg/mg"}, {"measurement": "IL-1β Stomach", "setting": "IL-1β; D4, 120.7mg/kg", "value": "291 ± 20", "unit": "pg/mg"}, {"measurement": "IL-1β Large intestine", "setting": "IL-1β; D8, 120.7 mg/kg", "value": "320 ± 34", "unit": "pg/mg"}, {"measurement": "IL-1β Small intestine", "setting": "IL-1β; D8, 120.7 mg/kg", "value": "340 ± 21", "unit": "pg/mg"}, {"measurement": "IL-1β Stomach", "setting": "IL-1β; D8, 120.7 mg/kg", "value": "308 ± 24", "unit": "pg/mg"}, {"measurement": "TNF-α Large intestine", "setting": "TNF-α; D4, 120.7mg/kg", "value": "2557 ± 100", "unit": "pg/mg"}, {"measurement": "TNF-α Small intestine", "setting": "TNF-α; D4, 120.7mg/kg", "value": "2806 ± 158", "unit": "pg/mg"}, {"measurement": "TNF-α Large intestine", "setting": "TNF-α; D8, 120.7 mg/kg", "value": "2491 ± 151", "unit": "pg/mg"}, {"measurement": "TNF-α Small intestine", "setting": "TNF-α; D8, 120.7 mg/kg", "value": "2698 ± 145", "unit": "pg/mg"}, {"measurement": "TNF-α Stomach", "setting": "TNF-α; D8, 120.7 mg/kg", "value": "2731 ± 96", "unit": "pg/mg"}]}, {"compound": "COc1ccc2c(c1)c(CC(=O)O)c(C)n2C(=O)c1ccc(Cl)cc1", "note": "[Indomethacin, indomethacin]", "values": [{"measurement": "Latency period", "setting": "ICR mice; onset of writhing", "value": "736.83 ± 258.16", "unit": "s"}, {"measurement": "Number of writhing incident", "setting": "ICR mice; within 15 min", "value": "2.17±4.53"}]}, {"compound": "CCC(CC)O[C@@H]1C=C(C(=O)O)C[C@H](N)[C@H]1NC(C)=O", "note": "[Oseltamivir acid, Oseltamivir Acid]", "values": [{"measurement": "IC50", "setting": "MDCK", "value": "> 1000", "unit": "µM"}, {"measurement": "IC50", "setting": "H1HeLa", "value": 1, "unit": "µM"}, {"measurement": "EC50", "setting": "influenza B virus (IBV)", "value": 0.0806, "unit": "µM"}, {"measurement": "EC50", "setting": "influenza A virus (H3N2)", "value": 0.931, "unit": "µM"}]}]}
